Format in all cases: physicochemical
A short description of data set [1]: Weight loss of the salts during heating by thermogravimetric analysis (TGA). The following applies: for Weight loss: TGA, heating rate 10° C./min, open pan. How it is done: Weight loss of the salts during heating was determined by thermogravimetric analysis (TGA) thermograms collected on TGA equipment (TA Instruments). Heating rate 10° C./min, 25-300° C., open pan.
Weight loss of each salt of compound (I) during heating was determined by thermogravimetric analysis (TGA) thermograms collected on TGA equipment (TA Instruments). Heating rate 10° C./min, 25-300° C., open pan.

The nature of data set [2]: Chemical stability: accelerated stability study of pressed tablets, degradation product A, prediction with ASAPprime software. To be noted: summary statement. How it is done:
The degradation rate of various salts of compound (I) was determined by measuring the amount of shelf-life determining degradation product 2-[(5-{[1-(methanesulfonyl)piperidin-4-yl]methoxy}-4-oxo-4H-pyran-2-yl)methyl]-2,3-dihydro-1H-isoindol-1 -one (degradation product A) from an accelerated stability study wherein samples were stored at various different temperature and relative humidity conditions. Each sample consisted of a pressed tablet containing a constant amount of the tested salt together with conventional excipients. The predicted increase (Δ %) of the degradation product A after 5 years was calculated with ASAPprime® software using the following parameters: • Bottle volume and material: 100 ml (HDPE HIS) • Desiccant: Silica (1 g) • Tablet amount: 60 • Conditions: 25° C./60% RH

Data set [3] in a line: Weight loss of the salts during heating by thermogravimetric analysis (TGA). The following applies: heating rate 10° C./min, 30-250° C., open pan, weight loss over 30-200° C.

Where a name gives a salt, the structure may show the parent alone.

For `CS(=O)(=O)N1CCC(COc2coc(CN3Cc4ccccc4C3)cc2=O)CC1` [1,2-Ethanedisulfonic acid salt, 2-(isoindolin-2-ylmethyl)-5-((1-(methylsulfonyl)piperidin-4-yl)methoxy)-4H-pyran-4-one], the Weight loss in data set [1] (weight loss over 25-100° C.) was 9.9%.
Consider `O=S(=O)(O)c1cccc2c(S(=O)(=O)O)cccc12` [1,5-Naphthalenedisulfonic acid], for which the Weight loss in data set [1] (weight loss over 25-220° C.) is on record as 0.3%.
`O=S(=O)(O)c1ccc2ccccc2c1` [2-Naphthalenesulphonic acid]: in data set [1] (weight loss over 25-225° C.), the Weight loss is on record as less than 0.1%.
On to `CS(=O)(=O)N1CCC(COc2coc(CN3Cc4ccccc4C3)cc2=O)CC1` [Benzenesulfonic acid salt, 2-(isoindolin-2-ylmethyl)-5-((1-(methylsulfonyl)piperidin-4-yl)methoxy)-4H-pyran-4-one], for which the Weight loss in data set [1] (weight loss over 25-220° C.) was found to be 0.3%.
Regarding `CS(=O)(=O)N1CCC(COc2coc(CN3Cc4ccccc4C3)cc2=O)CC1` [Ethanesulfonic acid salt, 2-(isoindolin-2-ylmethyl)-5-((1-(methylsulfonyl)piperidin-4-yl)methoxy)-4H-pyran-4-one], the Weight loss in data set [1] (weight loss over 25-190° C.) is less than 0.3%.
On the same count and under the same terms, with `CS(=O)(=O)N1CCC(COc2coc(CN3Cc4ccccc4C3)cc2=O)CC1` [Hydrochloric acid salt (form 3), 2-(isoindolin-2-ylmethyl)-5-((1-(methylsulfonyl)piperidin-4-yl)methoxy)-4H-pyran-4-one] the figure was 0.5%.
Take `CS(=O)(=O)N1CCC(COc2coc(CN3Cc4ccccc4C3)cc2=O)CC1` [Maleic acid salt (form 3), 2-(isoindolin-2-ylmethyl)-5-((1-(methylsulfonyl)piperidin-4-yl)methoxy)-4H-pyran-4-one]: the Weight loss in data set [1] (weight loss over 25-120° C.) came to 3.2%.
In the case of `CS(=O)(=O)N1CCC(COc2coc(CN3Cc4ccccc4C3)cc2=O)CC1` [Methanesulfonic acid salt, 2-(isoindolin-2-ylmethyl)-5-((1-(methylsulfonyl)piperidin-4-yl)methoxy)-4H-pyran-4-one], the Weight loss in data set [1] (weight loss over 25-75° C.) was found to be 5%.
For `CS(=O)(=O)N1CCC(COc2coc(CN3Cc4ccccc4C3)cc2=O)CC1` [Nitric acid salt, 2-(isoindolin-2-ylmethyl)-5-((1-(methylsulfonyl)piperidin-4-yl)methoxy)-4H-pyran-4-one], in data set [1] (weight loss over 25-205° C.), the Weight loss came to 0.9%.
Take `CS(=O)(=O)N1CCC(COc2coc(CN3Cc4ccccc4C3)cc2=O)CC1` [Oxalic acid salt (form 1), 2-(isoindolin-2-ylmethyl)-5-((1-(methylsulfonyl)piperidin-4-yl)methoxy)-4H-pyran-4-one]: the Weight loss in data set [1] (weight loss over 25-175° C.) is 0.4%.
As to `CS(=O)(=O)N1CCC(COc2coc(CN3Cc4ccccc4C3)cc2=O)CC1` [Sulfuric acid salt (form 2), 2-(isoindolin-2-ylmethyl)-5-((1-(methylsulfonyl)piperidin-4-yl)methoxy)-4H-pyran-4-one], the Weight loss in data set [1] (weight loss over 25-100° C.) is 8%.
Take `CS(=O)(=O)N1CCC(COc2coc(CN3Cc4ccccc4C3)cc2=O)CC1` [hydrobromic acid salt, 2-(isoindolin-2-ylmethyl)-5-((1-(methylsulfonyl)piperidin-4-yl)methoxy)-4H-pyran-4-one]: the Weight loss in data set [1] (weight loss over 25-220° C.) came to 0.1%.
As to `CS(=O)(=O)N1CCC(COc2coc(CN3Cc4ccccc4C3)cc2=O)CC1` [p-toluenesulfonic acid salt, 2-(isoindolin-2-ylmethyl)-5-((1-(methylsulfonyl)piperidin-4-yl)methoxy)-4H-pyran-4-one], the “solid-state stability in pharmaceutical dosage forms such as tablets (in words)” value in data set [2] was “excellent sold-state stability”. Moreover, the Weight loss in data set [3] amounted to 0.2%. Further, in data set [1] (crystalline salt, summary statement), the “weight loss during heating (in words)” value is “low weight loss during heating”.
